Assay results: patent US4760147A, “Optically active, substituted 1,4-dihydropyridines and their use as medicaments” (Cassella Aktiengesellschaft, priority 1984, dated 1988)

These molecules were tested on spiral strips of the arteria pulmonalis of guineapigs (assay: calcium-antagonistic action: relaxing effect on potassium-depolarised, CaCl2-contracted spiral strips of the arteria pulmonalis (modified method of Godfraind and Kaba and of Schumann et al)). Settings: depolarised with 40 mmol potassium; contraction triggered by 0.5 mmol CaCl2; mean value of 4 to 6 vascular strips; read-out: IC50 (concentration which inhibits the contraction by 50%).
Format: cell-based
Procedure: In these experiments, spiral strips of the arteria pulmonalis of guineapigs are depolarised with 40 mmol of potassium, after equilibration in calcium-freeTyrode's solution. The addition of 0.5 mmol of CaCl2 then triggers off contraction. The relaxing effect of the test substance is determined by cumulative addition in 1/2 log 10 graduated concentrations. The concentration of the test substance which inhibits the contraction by 50% (=IC50, mole/l) is determined from the concentration/effect curve (abscissa: -log mole/l of test substance, ordinate: % inhibition of the maximum contraction, mean value of 4 to 6 vascular strips).

| Compound | IC50 [nM] |
| --- | --- |
| COC(=O)C1=C(C)NC(C)=C(c2nnco2)C1c1cccc(Cl)c1Cl (single isomer, unassigned) [Example 2, Methyl (-)-1,4-dihydro-2,6-dimethyl-3-(1,3,4-oxadiazol-2-yl)-4-(2,3-dichlorophenyl)-pyridine-5-carboxylate] | 0.2 |
| CCOC(=O)C1=C(C)NC(C)=C(c2nnco2)C1c1cccc(Cl)c1Cl (single isomer, unassigned) [Example 3, Ethyl (-)-1,4-dihydro-2,6-dimethyl-3-(1,3,4-oxadiazol-2-yl)-4-(2,3-dichlorophenyl)-pyridine-5-carboxylate] | 0.07 |
| COCCOC(=O)C1=C(C)NC(C)=C(c2nnco2)C1c1cccc(Cl)c1Cl (single isomer, unassigned) [Example 4, Methoxyethyl (-)-1,4-dihydro-2,6-dimethyl-3-(1,3,4-oxadiazol-2-yl)-4-(2,3-dichlorophenyl)-pyridine-5-carboxylate] | 0.3 |
| CC1=C(C(=O)OCCOC(C)C)C(c2cccc(Cl)c2Cl)C(c2nnco2)=C(C)N1 (single isomer, unassigned) [Example 16, 2-isopropoxy-ethyl (-)-1,4-dihydro-2,6-dimethyl-3-(1,3,4-oxadiazol-2-yl)-4-(2,3-dichlorophenyl)-pyridine-5-carboxylate] | 0.1 |

Further lines, results first:

| IC50 [nM] | Compound |
| --- | --- |
| 0.04 | CC1=C(C(=O)OC(C)C)C(c2cccc(Cl)c2Cl)C(c2nnco2)=C(C)N1 (single isomer, unassigned) [Example 1e, Isopropyl (-)-1,4-dihydro-2,6-dimethyl-3-(1,3,4-oxadiazol-2-yl)-4-(2,3-dichlorophenyl)-pyridine-5-carboxylate] |
| 0.04 | CCOC(=O)[C@@H](C)OC(=O)C1=C(C)NC(C)=C(c2nnco2)C1c1cccc(Cl)c1Cl (single isomer, unassigned) [Example 8c] |
